Where “and” joins values, the source holds several entries; their conditions need not be identical. Equal entries are not always repeated.
How the values were obtained:
[1] = In vitro dissolution rate study, USP apparatus I (basket); assay type: physicochemical; details: within 45 min; 900 ml 0.05 M citrate buffer pH 6.6, 50 rpm, 37°C, 10 mg drug; listed as pure drug
Description: In vitro dissolution of rosuvastatin calcium solid dispersions, physical mixtures, and the pure drug was investigated using a basket stirrer in a USP dissolution apparatus (Industrial Lab) (USP apparatus I method). The dissolution medium was 900 ml of 0.05 M citrate buffer at pH 6.6, which is recommended by the US Food and Drug Administration for dissolution studies with rosuvastatin calcium. The rotation speed was 50 rpm, and the temperature was kept constant at 37 ± 0.5°C during the experiment. Each test employed solid dispersions containing 10 mg of rosuvastatin calcium. At known intervals of time of 5, 10, 15, 20, 25, 30, and 45 minutes, 5 ml of the dissolution medium sample was removed and refilled with the same quantity of medium to maintain a consistent volume throughout the experiment. The withdrawn material was filtered using a 0.45 μm syringe filter. After dilution with a 0.05 M citrate buffer solution, the samples were spectrophotometrically analyzed by detecting the absorbance at 241 nm. […] The dissolution studies of each formulation were conducted in triplicate.

[2] = design: method as in earlier work; details: sodium salicylate (2.0 M); ref 18 (Nainwal et al.); cited from earlier work
[3] = Saturated solubility study in distilled water (pure drug, solid dispersions, physical mixture); assay type: physicochemical; details: 37 °C, thermodynamic from solid, 37 ± 0.5°C, 24 h shaking + 24 h equilibration
Description: To assess the solubility of pure rosuvastatin calcium, produced solid dispersions, and physical mixtures in distilled water, saturation solubility tests were performed. The saturation solubility tests were performed in triplicate according to Higuchi and Connors' technique. The excess of solid dispersions and physical mixtures were added to vials containing 10 ml of distilled water. The vials were shaken for 24 hours on a mechanical isothermal bath shaker at 37 ± 0.5°C and then left alone for another 24 hours to equilibrate. A syringe filter with a grade of 0.45 μm was used to filter the drug-containing solution. An aliquot of the filtrate was suitably diluted with the corresponding reagent, and the dilution was analyzed on a UV-visibledouble-beam spectrophotometer [18].

[4] = due to limited water solubility; cited from earlier work
[5] = cited from earlier work
[6] = Equilibrium solubility of rosuvastatin calcium in mixed hydrotropic solutions; assay type: physicochemical; details: total 40%; for solubility at 24 h: mixed hydrotropic agent solution in distilled water; for solubility at 24 h / solubility: 37 °C, aqueous with cosolvent or surfactant or cyclodextrin, thermodynamic from solid; for solubility: mixed hydrotropic solution in distilled water
Description: In order to create a clear solution, two to three hydrotropic agents were mixed and dissolved in distilled water. Next, an excessive amount of calcium rosuvastatin was added, and the mixture was shaken until no more rosuvastatin was dissolved. The solutions are mechanically shaken on a mechanical isothermal bath shaker at 37 ± 0.5°C for 24 hours, followed by another 24 hours of equilibration. A grade of 0.45 μm syringe filter was used to filter the resultant solution. Using a UV-visibledouble-beam spectrophotometer, a portion of the material was diluted with distilled water and analyzed at 242 nm. The equilibrium solubility studies were conducted in triplicate. To obtain optimal solubility of rosuvastatin calcium in water, a ratio of three hydrotropic agents was adjusted.

[7] = Equilibrium solubility of rosuvastatin calcium in single hydrotropic agent solutions; assay type: physicochemical; details: for solubility thermodynamic at 24 h: aqueous hydrotropic agent solution, 37 °C, aqueous with cosolvent or surfactant or cyclodextrin, thermodynamic from solid
Description: At first, equilibrium solubility investigations were conducted with a variety of hydrotropic agents. […] In a 10 ml vial, 5 ml of a specific hydrotropic agent solution was accurately measured, and an excess of rosuvastatin calcium was added and physically agitated for 30 minutes until a saturated solution was generated. To achieve equilibrium solubility, the vial was shaken on a mechanical isothermal bath shaker at 37 ± 0.5°C for 24 hours, and the solution was allowed to equilibrate for another 24 hours. The resulting solution was filtered with a grade of 0.45 μm syringe filter. A portion of the sample was diluted with distilled water and examined at 242 nm using a UV-visibledouble-beam spectrophotometer against the respective solvent as a blank. The equilibrium solubility study was conducted in triplicate. The following formula was used for the calculation of solubility enhancement ratios:(1) Enhancement ratio=Solubility of drug in hydrotropic solution/Solubility of drug in water. Equation (1) is used for the calculation of the solubility enhancement ratio.

Question: What does the source list for `CC(C)c1nc(N(C)S(C)(=O)=O)nc(-c2ccc(F)cc2)c1/C=C/[C@@H](O)C[C@@H](O)CC(=O)O` [rosuvastatin calcium, Rosuvastatin calcium]?
Answer: In vitro drug release [1]: 40.73 ± 4.44% and 40.73%; Increase in solubility [2]: 55 folds; solubility [3]: 0.427 ± 0.005 mg/mL; Biopharmaceutics classification system (BCS) class [4]: class II; t1/2 [5]: 19 h; Oral bioavailability ([5]; oral): roughly 20%; Solubility enhancement ratio ([6]; SS : C 20 : 20 % w/v, vs water): 76.015; Solubility enhancement ratio ([6]; SS : M 20 : 20 % w/v, vs water): 128.66; Solubility enhancement ratio ([6]; SS : SB 5 : 35 % w/v, vs water): 189.78; Solubility enhancement ratio ([6]; SS : SB 10 : 30 % w/v, vs water): 120.01; Solubility enhancement ratio ([6]; SS : SB 15 : 25 % w/v, vs water): 389.37; Solubility enhancement ratio ([6]; SS : SB 20 : 20 % w/v, vs water): 421.02; Solubility enhancement ratio ([6]; SS : SB : C, each 13.333 % w/v, vs water): 112.005; Solubility enhancement ratio ([6]; SS : SB : M, each 13.333 % w/v, vs water): 172.722; Solubility enhancement ratio ([6]; SS : SB : U 10 : 15 : 15 % w/v, vs water): 200.265; Solubility enhancement ratio ([6]; SS : SB : U 20 : 05 : 15 % w/v, vs water): 210.314; Solubility enhancement ratio ([6]; SS : SB : U 20 : 10 : 10 % w/v, vs water): 235.414; Solubility enhancement ratio ([6]; SS : SB : U 20 : 15 : 05 % w/v, vs water): 301.328; Solubility enhancement ratio ([6]; SS : SB : U, each 13.333 % w/v, vs distilled water): 449.137; Solubility enhancement ratio ([6]; SS : SB : U, each 13.333 % w/v, vs distilled water, listed as rosuvastatin): 449; Solubility enhancement ratio ([6]; SS : U 20 : 20 % w/v, vs water): 181.65; solubility at 24 h ([6]; SS : C 20 : 20 % w/v): 32.5 ± 0.52 mg/mL; solubility at 24 h ([6]; SS : M 20 : 20 % w/v): 55 ± 2.72 mg/mL; solubility at 24 h ([6]; SS : SB 5 : 35 % w/v): 81.1 ± 1.54 mg/mL; solubility at 24 h ([6]; SS : SB 10 : 30 % w/v): 51.3 ± 3.38 mg/mL; solubility at 24 h ([6]; SS : SB 20 : 20 % w/v): 180 ± 40.1 mg/mL; solubility at 24 h ([6]; SS : SB : U, each 13.333 % w/v): 192 ± 38.6 mg/mL; solubility at 24 h ([6]; SS : U 20 : 20 % w/v): 77.6 ± 2.31 mg/mL; solubility ([6]; SS : SB 15 : 25 % w/v): 166 ± 7.24 mg/mL; solubility ([6]; SS : SB : C, each 13.333 % w/v): 47.9 ± 1.43 mg/mL; solubility ([6]; SS : SB : M, each 13.333 % w/v): 73.8 ± 1.49 mg/mL; solubility ([6]; SS : SB : U 10 : 15 : 15 % w/v): 85.6 ± 1.74 mg/mL; solubility ([6]; SS : SB : U 20 : 05 : 15 % w/v): 89.9 ± 5.18 mg/mL; solubility ([6]; SS : SB : U 20 : 10 : 10 % w/v): 101 ± 12.7 mg/mL; solubility ([6]; SS : SB : U 20 : 15 : 05 % w/v): 129 ± 4.02 mg/mL; solubility ([6]; SS : SB : U, each 13.333 % w/v): 192 ± 38.6 mg/mL; solubility thermodynamic at 24 h ([7]; citric acid 10% w/v aqueous solution): 0.45 ± 0.003 mg/mL; solubility thermodynamic at 24 h ([7]; citric acid 20% w/v aqueous solution): 0.75 ± 0.05 mg/mL; solubility thermodynamic at 24 h ([7]; citric acid 30% w/v aqueous solution): 0.78 ± 0.1 mg/mL; solubility thermodynamic at 24 h ([7]; citric acid 40% w/v aqueous solution): 0.93 ± 0.17 mg/mL; solubility thermodynamic at 24 h ([7]; mannitol 10% w/v aqueous solution): 0.49 ± 0.13 mg/mL; solubility thermodynamic at 24 h ([7]; mannitol 20% w/v aqueous solution): 0.599 ± 0.09 mg/mL; solubility thermodynamic at 24 h ([7]; mannitol 30% w/v aqueous solution): 0.66 ± 0.1 mg/mL; solubility thermodynamic at 24 h ([7]; mannitol 40% w/v aqueous solution): 0.89 ± 0.028 mg/mL; solubility thermodynamic at 24 h ([7]; sodium benzoate 10% w/v aqueous solution): 22.9 ± 1.46 mg/mL; solubility thermodynamic at 24 h ([7]; sodium benzoate 20% w/v aqueous solution): 39 ± 4.53 mg/mL; solubility thermodynamic at 24 h ([7]; sodium benzoate 30% w/v aqueous solution): 103 ± 14.1 mg/mL; solubility thermodynamic at 24 h ([7]; sodium benzoate 40% w/v aqueous solution): 119 ± 13.8 mg/mL; solubility thermodynamic at 24 h ([7]; sodium salicylate 10% w/v aqueous solution): 27 ± 1.04 mg/mL; solubility thermodynamic at 24 h ([7]; sodium salicylate 20% w/v aqueous solution): 49.9 ± 2.58 mg/mL; solubility thermodynamic at 24 h ([7]; sodium salicylate 30% w/v aqueous solution): 97.3 ± 4.13 mg/mL; solubility thermodynamic at 24 h ([7]; sodium salicylate 40% w/v aqueous solution): 125 ± 1.8 mg/mL; solubility thermodynamic at 24 h ([7]; urea 10% w/v aqueous solution): 0.85 ± 0.07 mg/mL; solubility thermodynamic at 24 h ([7]; urea 20% w/v aqueous solution): 1.06 ± 0.08 mg/mL; solubility thermodynamic at 24 h ([7]; urea 30% w/v aqueous solution): 1.13 ± 0.16 mg/mL; solubility thermodynamic at 24 h ([7]; urea 40% w/v aqueous solution): 1.36 ± 0.1 mg/mL; Solubility enhancement ratio ([7]; citric acid solution vs water (fits the 40% w/v value)): 2.192; Solubility enhancement ratio ([7]; mannitol solution vs water (fits the 40% w/v value)): 2.085; Solubility enhancement ratio ([7]; sodium benzoate solution vs water (fits the 40% w/v value)): 277.556; Solubility enhancement ratio ([7]; sodium salicylate solution (40%) vs water, listed as Rosuvastatin calcium): 292.961; Solubility enhancement ratio ([7]; sodium salicylate solution (40%) vs water, listed as rosuvastatin): 292.9; Solubility enhancement ratio ([7]; urea solution vs water (fits the 40% w/v value)): 3.198
